Where two headings read alike, the source gives them in different places.

The results in this text go back to US11596639B2, “Substituted indole Mcl-1 inhibitors” (Vanderbilt University, priority 2016, dated 2023).

One test addresses Mcl-1 (Homo sapiens (Human), UniProt Q07820). The experiment in a line: TR-FRET binding assay, FITC-Bak peptide and MBP-tagged Mcl-1. The note with it: read-out: Ki for Inhibition of Mcl-1 by TR-FRET assay. The method, then:
Compounds are diluted in DMSO in a 16-point, semilog serial dilution scheme. […] The plate was mixed and incubated for 3 hours at room temperature. […] TR-FRET signal is plotted and IC50 and Ki values are calculated in the same manner as the fluorescence polarization anisotropy based competition assays.
Background: In TR-FRET formats the signal depends on donor and acceptor labels being close together.

Test [1] relates to H929 human cancer cell lines. The experiment in a line: Cellular viability / proliferation (Cell TiterGlo, 72 h). The format is cell-based. In outline: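 Plating is at 1,000 cells/well in 10% FBS medium; after 24 h, compound is added as a 2-fold series starting at 50 μM with under 1% DMSO.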
For orientation: Cellular ATP, detected with luciferase, serves as a proxy for viable cell number.

Setting [2] is: Homo sapiens, NCI-H929, 72 h, read-out: GI50 on cellular proliferation of H929 human cancer cell lines, H929 cells, 72 h, Cell TiterGlo, 10% FBS.

Chain of Mcl-1 (Q07820 172-327): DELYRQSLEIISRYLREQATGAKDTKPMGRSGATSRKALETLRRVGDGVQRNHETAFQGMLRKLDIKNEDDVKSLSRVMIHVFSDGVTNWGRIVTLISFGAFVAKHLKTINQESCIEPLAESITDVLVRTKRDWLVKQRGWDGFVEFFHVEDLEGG

For orientation: Ki means a dissociation constant, usually derived from enzyme kinetics or from competition with a known ligand. As to `COc1cc(N2C[C@@H](C)n3c(c(CCCOc4cc(C)c(Cl)c(C)c4)c4ccc(Cl)c(-c5c(C)nn(C)c5C)c43)C2=O)c2c(c1)cc(C(=O)O)n2Cc1ccccn1` [Example 538, (R)-7-(7-Chloro-10-(3-(4-chloro-3,5-dimethylphenoxy)propyl)-4-methyl-1-oxo-6-(1,3,5-trimethyl-1H-pyrazol-4-yl)-3,4-dihydropyrazino[1,2-a]indol-2(1H)-yl)-5-methoxy-1-(pyridin-2-ylmethyl)-1H-indole-2-carboxylic acid], the Ki at Mcl-1 was under 0.2 nM. Further, the GI50 in test [1] (setting [2]) was under 200 nM.
Consider `COCCn1cc(C(=O)O)c2cc(OCCN(C)C)cc(N3C[C@@H](C)n4c(c(CCCOc5cc(C)c(Cl)c(C)c5)c5ccc(Cl)c(-c6c(C)nn(C)c6C)c54)C3=O)c21` [Example 671, (R)-7-(7-chloro-10-(3-(4-chloro-3,5-dimethylphenoxy)propyl)-4-methyl-1-oxo-6-(1,3,5-trimethyl-1H-pyrazol-4-yl)-3,4-dihydropyrazino[1,2-a]indol-2(1H)-yl)-5-(2-(dimethylamino)ethoxy)-1-(2-methoxyethyl)-1H-indole-3-carboxylic acid], for which the Ki on Mcl-1 worked out at 0.32 nM. Moreover, the GI50 in test [1] (setting [2]) came out at 890 nM.
`Cc1nn(C)c(C)c1-c1c(Cl)ccc2c(CCCOc3cccc4ccccc34)c3n(c12)[C@H](C)CN(c1cn(C)c2ccc(C(=O)O)cc12)C3=O` [Example 545, (R)-3-(7-Chloro-4-methyl-10-(3-(naphthalen-1-yloxy)propyl)-1-oxo-6-(1,3,5-trimethyl-1H-pyrazol-4-yl)-3,4-dihydropyrazino[1,2-a]indol-2(1H)-yl)-1-methyl-1H-indole-5-carboxylic acid]: at Mcl-1, the Ki was 0.39 nM. The GI50 in test [1] (setting [2]) was found to be 560 nM.
In the same order, the values of `COCCOc1cc(N2C[C@@H](C)n3c(c(CCCOc4cc(C)c(Cl)c(C)c4)c4ccc(Cl)c(-c5c(C)nn(C)c5C)c43)C2=O)c2c(c1)c(C(=O)O)cn2CCOC` [Example 656, (R)-7-(7-chloro-10-(3-(4-chloro-3,5-dimethylphenoxy)propyl)-4-methyl-1-oxo-6-(1,3,5-trimethyl-1H-pyrazol-4-yl)-3,4-dihydropyrazino[1,2-a]indol-2(1H)-yl)-5-(2-methoxyethoxy)-1-(2-methoxyethyl)-1H-indole-3-carboxylic acid] are under 0.2 nM and 250 nM.
Take `Cc1ccc(Cn2cc(C(=O)O)c3cccc(N4C[C@@H](C)n5c(c(CCCOc6cc(C)c(Cl)c(C)c6)c6ccc(Cl)c(-c7c(C)nn(C)c7C)c65)C4=O)c32)nc1` (single isomer, unassigned) [Example 507]: the inhibition constant (Ki) at Mcl-1 is 0.72 nM. Moreover, in test [1] (read-out: GI50 on cellular proliferation of H929 human cancer cell lines, H929 cells, 72 h, Cell TiterGlo, 10% FBS), the GI50 amounted to 1400 nM.
Take `COCCn1c(C(=O)O)cc2c(OC)ccc(N3C[C@@H](C)n4c(c(CCCOc5cc(C)c(Cl)c(C)c5)c5ccc(Cl)c(-c6c(C)ncnc6C)c54)C3=O)c21` [Example 493, (R)-7-(7-chloro-10-(3-(4-chloro-3,5-dimethylphenoxy)propyl)-6-(4,6-dimethylpyrimidin-5-yl)-4-methyl-1-oxo-3,4-dihydropyrazino[1,2-a]indol-2(1H)-yl)-4-methoxy-1-(2-methoxyethyl)-1H-indole-2-carboxylic acid]: at Mcl-1, the Ki is under 0.2 nM. Also, the GI50 in test [1] (setting [2]) was under 200 nM.
In the case of `Cc1cc(N2C[C@@H](C)n3c(c(CCCOc4cc(C)c(Cl)c(C)c4)c4ccc(Cl)c(-c5c(C)nn(C)c5C)c43)C2=O)c2c(c1)cc(C(=O)O)n2Cc1cc(N2CCNCC2)ccn1` [Example 553, (R)-7-(7-chloro-10-(3-(4-chloro-3,5-dimethylphenoxy)propyl)-4-methyl-1-oxo-6-(1,3,5-trimethyl-1H-pyrazol-4-yl)-3,4-dihydropyrazino[1,2-a]indol-2(1H)-yl)-5-methyl-1-((4-(piperazin-1-yl)pyridin-2-yl)methyl)-1H-indole-2-carboxylic acid], on Mcl-1, the inhibitory constant (Ki) is under 0.2 nM. The GI50 in test [1] (setting [2]) was found to be 2800 nM.
As for `Cc1cc(OCCCc2c3n(c4c(-c5c(C)nn(C)c5C)c(Cl)ccc24)[C@H](C)CN(c2cn(CC4CCN(C)C4)c4ccc(C(=O)O)cc24)C3=O)cc(C)c1Cl` (stereo partly drawn) [Example 534, 3-((R)-7-Chloro-10-(3-(4-chloro-3,5-dimethylphenoxy)propyl)-4-methyl-1-oxo-6-(1,3,5-trimethyl-1H-pyrazol-4-yl)-3,4-dihydropyrazino[1,2-a]indol-2(1H)-yl)-1-((1-methylpyrrolidin-3-yl)methyl)-1H-indole-5-carboxylic acid], the Ki on Mcl-1 was under 0.2 nM. In addition, the GI50 in test [1] (setting [2]) was 520 nM.
In the case of `Cc1cc(OCCCc2c3n(c4c(-c5c(C)nn(C)c5C)c(Cl)ccc24)[C@H](C)CN(c2cn(C[C@H]4CCCN4C)c4ccc(C(=O)O)cc24)C3=O)cc(C)c1Cl` [Example 694, 3-((R)-7-chloro-10-(3-(4-chloro-3,5-dimethylphenoxy)propyl)-4-methyl-1-oxo-6-(1,3,5-trimethyl-1H-pyrazol-4-yl)-3,4-dihydropyrazino[1,2-a]indol-2(1H)-yl)-1-(((R)-1-methylpyrrolidin-2-yl)methyl)-1H-indole-5-carboxylic acid], the Ki on Mcl-1 is under 0.2 nM. Moreover, the GI50 in test [1] (setting [2]) was 320 nM.
The like results for `COCCn1cc(N2C[C@@H](C)n3c(c(CCCOc4cc(C)c(Cl)c(C)c4)c4ccc(Cl)c(-c5c(C)nc(CN6CCN(C)CC6)nc5C)c43)C2=O)c2cc(C(=O)O)ccc21` [Example 559, (R)-3-(7-chloro-10-(3-(4-chloro-3,5-dimethylphenoxy)propyl)-6-(4,6-dimethyl-2-((4-methylpiperazin-1-yl)methyl)pyrimidin-5-yl)-4-methyl-1-oxo-3,4-dihydropyrazino[1,2-a]indol-2(1H)-yl)-1-(2-methoxyethyl)-1H-indole-5-carboxylic acid] were, in that order, under 0.2 nM and 430 nM.
For `Cc1cc(OCCCc2c3n(c4c(-c5c(C)nn(C)c5C)c(Cl)ccc24)[C@H](C)CN(c2cn(Cc4ccccn4)c4ccc(C(=O)O)cc24)C3=O)cc(C)c1Cl` [Example 561, (R)-3-(7-chloro-10-(3-(4-chloro-3,5-dimethylphenoxy)propyl)-4-methyl-1-oxo-6-(1,3,5-trimethyl-1H-pyrazol-4-yl)-3,4-dihydropyrazino[1,2-a]indol-2(1H)-yl)-1-(pyridin-2-ylmethyl)-1H-indole-5-carboxylic acid], the Ki on Mcl-1 is under 0.2 nM. In addition, the GI50 in test [1] (setting [2]) was determined as 510 nM.
Regarding `COc1ccc(N2C[C@@H](C)n3c(c(CCCOc4cc(C)c(Cl)c(C)c4)c4ccc(Cl)c(-c5c(C)nc(CN(C)C)nc5C)c43)C2=O)c2c1cc(C(=O)O)n2Cc1ccccn1` [Example 482, (R)-7-(7-Chloro-10-(3-(4-chloro-3,5-dimethylphenoxy)propyl)-6-(2-((dimethylamino)methyl)-4,6-dimethylpyrimidin-5-yl)-4-methyl-1-oxo-3,4-dihydropyrazino[1,2-a]indol-2(1H)-yl)-4-methoxy-1-(pyridin-2-ylmethyl)-1H-indole-2-carboxylic acid], on Mcl-1, the inhibition constant Ki was under 0.2 nM. Moreover, the GI50 in test [1] (setting [2]) was 340 nM.
In the case of `Cc1cc(OCCCc2c3n(c4c(-c5c(C)nn(C)c5C)c(Cl)ccc24)[C@H](C)CN(c2cn(CC(=O)N4CCCC4)c4ccc(-c5ncn(C)n5)cc24)C3=O)cc(C)c1Cl` [Example 527, (R)-7-Chloro-10-(3-(4-chloro-3,5-dimethylphenoxy)propyl)-4-methyl-2-(5-(1-methyl-1H-1,2,4-triazol-3-yl)-1-(2-oxo-2-(pyrrolidin-1-yl)ethyl)-1H-indol-3-yl)-6-(1,3,5-trimethyl-1H-pyrazol-4-yl)-3,4-dihydropyrazino[1,2-a]indol-1(2H)-one], the Ki on Mcl-1 amounted to 0.36 nM. For the same compound, the GI50 in test [1] (setting [2]) was 260 nM.
The like results for `COCCn1cc(N2C[C@@H](C)n3c(c(CCCOc4cc(C)c(Cl)c(C)c4)c4ccc(Cl)c(-c5c(C)nn(C)c5C)c43)C2=O)c2cc(-c3ncn(CC4CC4)n3)ccc21` [Example 589, (R)-7-Chloro-10-(3-(4-chloro-3,5-dimethylphenoxy)propyl)-2-(5-(1-(cyclopropylmethyl)-1H-1,2,4-triazol-3-yl)-1-(2-methoxyethyl)-1H-indol-3-yl)-4-methyl-6-(1,3,5-trimethyl-1H-pyrazol-4-yl)-3,4-dihydropyrazino[1,2-a]indol-1(2H)-one] were, in that order, 1.7 nM and 1100 nM.
